Data on 19 compounds can be found in patent US20240124442A1, “TRICYCLIC-AMIDO-BICYCLIC PRMT5 INHIBITORS” (AMGEN INC., priority 2021, published 2024).

As usually defined, the IC50 is the midpoint of a concentration-inhibition curve.

The structures appear in SMILES notation.

In one assay the test system is HCT116 MTAP null cells. The assay can be described thus: HCT116 MTAP null cell line proliferation / cell viability (CellTiter-Glo, 6 days). It is filed as cell-based. The settings on record: 144 h; HCT116 MTAP null cells, 6 days treatment, CellTiter-Glo cell viability; read-out: HCT-116 MTAP null IC50. The gist of the method: (§1)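 CellTiter-Glo luminescence read after 6 days of compound exposure in parental and MTAP-null HCT116 cells grown in RPMI 1640/10% FBS. Dilution series: 1:3 steps, 8–9 points, top 1 or 10 μM; or 1:2 steps, 22 points, top 10 or 50 μM. IC50 = curve transit through 50% of control.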

The subject of a further assay is HCT116 WT cells. Description: HCT116 WT (parent) cell line proliferation / cell viability (CellTiter-Glo, 6 days). It is filed as cell-based. The settings on record: Homo sapiens, HCT-116, 144 h, 6 days treatment. The gist of the method: as §1

On to `CN(C(=O)c1cc2c(cc1F)nc(N)c1cnn(C)c12)[C@@H]1COc2cc(F)c(F)cc21` [Example 475, 4-amino-N-((3S)-5,6-difluoro-2,3-dihydro-1-benzofuran-3-yl)-7-fluoro-N,1-dimethyl-1H-pyrazolo[4,3-c]quinoline-8-carboxamide], for which the IC50 in the assay on HCT116 MTAP null cells is 8 nM; in the assay on HCT116 WT cells, 199 nM.

As to `CN(C(=O)c1cc2c(cc1F)nc(N)c1cnn(C)c12)[C@@H]1COc2cc(Cl)c(Cl)cc21` [Example 476, 4-amino-N-((3S)-5,6-dichloro-2,3-dihydro-1-benzofuran-3-yl)-7-fluoro-N,1-dimethyl-1H-pyrazolo[4,3-c]quinoline-8-carboxamide], the IC50 turned out to be 6 nM with HCT116 MTAP null cells and 125 nM in the assay with HCT116 WT cells.

As for `CN(C(=O)c1cc2c(cc1F)nc(N)c1cnn(C)c12)[C@H]1COc2cc(Cl)c(Cl)cc21` [Example 477, 4-amino-N-((3R)-5,6-dichloro-2,3-dihydro-1-benzofuran-3-yl)-7-fluoro-N,1-dimethyl-1H-pyrazolo[4,3-c]quinoline-8-carboxamide], the half-maximal inhibitory concentration (IC50) in the assay with HCT116 MTAP null cells was 92 nM; in the assay with HCT116 WT cells it was 2530 nM.

On to `CN(C(=O)c1cc2c(cc1F)nc(N)c1cnn(C)c12)[C@@H]1COc2cc(OC(F)(F)F)ccc21` [Example 478, 4-amino-7-fluoro-N,1-dimethyl-N-((3S)-6-(trifluoromethoxy)-2,3-dihydro-1-benzofuran-3-yl)-1H-pyrazolo[4,3-c]quinoline-8-carboxamide], for which the IC50 in the assay with HCT116 MTAP null cells was found to be 5 nM; in the assay with HCT116 WT cells, 133 nM.

Take `CN(C(=O)c1cc2c(cc1Cl)nc(N)c1cnn(C)c12)[C@@H]1COc2cc(C(F)(F)F)ccc21` [Example 480, 4-amino-7-chloro-N,1-dimethyl-N-((3S)-6-(trifluoromethyl)-2,3-dihydro-1-benzofuran-3-yl)-1H-pyrazolo[4,3-c]quinoline-8-carboxamide]: the concentration for half-maximal inhibition (IC50) came to 4 nM with HCT116 MTAP null cells and 43 nM in the assay with HCT116 WT cells.

Take `CN(C(=O)c1cc2c(cc1Cl)nc(N)c1cnn(C)c12)[C@@H]1COc2cc(OC(F)(F)F)ccc21` [Example 481, 4-amino-7-chloro-N,1-dimethyl-N-((3S)-6-(trifluoromethoxy)-2,3-dihydro-1-benzofuran-3-yl)-1H-pyrazolo[4,3-c]quinoline-8-carboxamide]: the half-maximal inhibitory concentration (IC50) turned out to be 5 nM in the assay on HCT116 MTAP null cells and 45 nM in the assay with HCT116 WT cells.

As for `CN(C(=O)c1cc2c(cc1F)nc(N)c1c2cnn1C)[C@@H]1COc2cc(Cl)c(Cl)cc21` [Example 483, 4-amino-N-((3S)-5,6-dichloro-2,3-dihydro-1-benzofuran-3-yl)-7-fluoro-N,3-dimethyl-3H-pyrazolo[3,4-c]quinoline-8-carboxamide], the 50% inhibitory concentration (IC50) with HCT116 MTAP null cells was 81 nM; in the assay with HCT116 WT cells, 5280 nM.

For `CN(C(=O)c1cc2c(cc1Cl)nc(N)c1c2cnn1C)[C@@H]1COc2cc(C(F)(F)F)ccc21` [Example 486, 4-amino-7-chloro-N,3-dimethyl-N-((3S)-6-(trifluoromethyl)-2,3-dihydro-1-benzofuran-3-yl)-3H-pyrazolo[3,4-c]quinoline-8-carboxamide], the values for the IC50 in the assay on HCT116 MTAP null cells and in the assay on HCT116 WT cells were 78 nM and 4880 nM, respectively.

Take `CN(C(=O)c1cc2c(cc1Cl)nc(N)c1c2cnn1C)[C@@H]1COc2cc(OC(F)(F)F)ccc21` [Example 487, 4-amino-7-chloro-N,3-dimethyl-N-((3S)-6-(trifluoromethoxy)-2,3-dihydro-1-benzofuran-3-yl)-3H-pyrazolo[3,4-c]quinoline-8-carboxamide]: the values for the concentration for half-maximal inhibition (IC50) in the assay on HCT116 MTAP null cells and with HCT116 WT cells were 47 nM and 2870 nM, respectively.

With `C[C@H]1OCc2c1c(N)nc1ccc(C(=O)N(C)[C@@H]3COCc4nc(C(F)(F)F)ccc43)cc21` [Example 488, (3R)-4-amino-N,3-dimethyl-N-((5S)-2-(trifluoromethyl)-5,8-dihydro-6H-pyrano[3,4-b]pyridin-5-yl)-1,3-dihydrofuro[3,4-c]quinoline-8-carboxamide], the IC50 was determined as 13 nM in the assay on HCT116 MTAP null cells and 682 nM in the assay with HCT116 WT cells.

For `CN(C(=O)c1cc2c3c(c(N)nc2cn1)COC3)[C@@H]1COCc2cc(C#N)ccc21` [Example 489, 4-amino-N-((4S)-7-cyano-3,4-dihydro-1H-2-benzopyran-4-yl)-N-methyl-1,3-dihydrofuro[3,4-c][1,7]naphthyridine-8-carboxamide], the IC50 was found to be 49 nM in the assay with HCT116 MTAP null cells and 2220 nM in the assay on HCT116 WT cells.

As for `CN(C(=O)c1cc2c3c(c(N)nc2cn1)COC3)[C@@H]1COCc2cc(C(F)(F)F)ccc21` [Example 490, 4-amino-N-methyl-N-((4S)-7-(trifluoromethyl)-3,4-dihydro-1H-2-benzopyran-4-yl)-1,3-dihydrofuro[3,4-c][1,7]naphthyridine-8-carboxamide], the IC50 is 33 nM with HCT116 MTAP null cells and 1030 nM with HCT116 WT cells.

For the compound `CN(C(=O)c1cc2c3c(c(N)nc2cn1)COC3)[C@@H]1COCc2nc(C(F)(F)F)ccc21` [Example 491, 4-amino-N-methyl-N-((5S)-2-(trifluoromethyl)-5,8-dihydro-6H-pyrano[3,4-b]pyridin-5-yl)-1,3-dihydrofuro[3,4-c][1,7]naphthyridine-8-carboxamide], the figures for the half-maximal inhibitory concentration (IC50) in the assay with HCT116 MTAP null cells and with HCT116 WT cells were 43 nM and 2060 nM, respectively.

In the case of `CN(C(=O)c1cc2c3c(c(N)nc2cn1)COC3)[C@@H]1COCc2cc(C(F)(F)F)ncc21` [Example 492, 4-amino-N-methyl-N-((4S)-7-(trifluoromethyl)-3,4-dihydro-1H-pyrano[4,3-c]pyridin-4-yl)-1,3-dihydrofuro[3,4-c][1,7]naphthyridine-8-carboxamide], the IC50 in the assay on HCT116 MTAP null cells worked out at 706 nM; with HCT116 WT cells, 31400 nM.

Turning to `CN(C(=O)c1cnc2nc(N)c3c(c2c1)COC3)[C@@H]1COCc2cc(C(F)(F)F)ccc21` [Example 493, 4-amino-N-methyl-N-((4S)-7-(trifluoromethyl)-3,4-dihydro-1H-2-benzopyran-4-yl)-1,3-dihydrofuro[3,4-c][1,8]naphthyridine-8-carboxamide], the IC50 was found to be 92 nM in the assay on HCT116 MTAP null cells and 2050 nM in the assay with HCT116 WT cells.

Take `CN(C(=O)c1cc2c3c(c(N)nc2cc1F)COC3)[C@@H]1COCc2nc(C(F)(F)F)ccc21` [Example 494, 4-amino-7-fluoro-N-methyl-N-((5S)-2-(trifluoromethyl)-5,8-dihydro-6H-pyrano[3,4-b]pyridin-5-yl)-1,3-dihydrofuro[3,4-c]quinoline-8-carboxamide]: the results for the IC50 with HCT116 MTAP null cells and in the assay on HCT116 WT cells were 23 nM and 671 nM, respectively.

On to `C[C@H]1OCc2c1c(N)nc1cc(F)c(C(=O)N(C)[C@@H]3COCc4nc(C(F)(F)F)ccc43)cc21` [Example 495, (3R)-4-amino-7-fluoro-N,3-dimethyl-N-((5S)-2-(trifluoromethyl)-5,8-dihydro-6H-pyrano[3,4-b]pyridin-5-yl)-1,3-dihydrofuro[3,4-c]quinoline-8-carboxamide], for which the half-maximal inhibitory concentration (IC50) was found to be 15 nM in the assay on HCT116 MTAP null cells and 386 nM with HCT116 WT cells.

For `CN(C(=O)c1cc2c3c(c(N)nc2cc1Cl)COC3)[C@@H]1COCc2cc(C#N)ccc21` [Example 496, 4-amino-7-chloro-N-((4S)-7-cyano-3,4-dihydro-1H-2-benzopyran-4-yl)-N-methyl-1,3-dihydrofuro[3,4-c]quinoline-8-carboxamide], the IC50 in the assay on HCT116 MTAP null cells was 5 nM; in the assay on HCT116 WT cells, 205 nM.

Turning to `Cc1noc2c1c(N)nc1ccc(C(=O)N(C)[C@@H]3COCc4cc(C#N)ccc43)cc12` [Example 497, 4-amino-N-((4S)-7-cyano-3,4-dihydro-1H-2-benzopyran-4-yl)-N,3-dimethyl[1,2]oxazolo[4,5-c]quinoline-8-carboxamide], the IC50 is 350 nM with HCT116 MTAP null cells and 19700 nM in the assay with HCT116 WT cells.
